Broadly, the TGI is the concentration giving total growth inhibition. High values mean less potent growth arrest, low ones more potent growth arrest. A word on the GI50: it is the concentration that inhibits growth by half.

Experimental findings from PubChem BioAssay (NCI) are described below.

Test systems include RXF 393 renal; UO-31 renal; T-47D breast; SNB-75 CNS; SK-OV-3 ovarian; MDA-MB-231 breast; SF-539 CNS; EKVX NSCLC; MDA-MB-435.
What all share (test): DTP human tumour cell line panel, 48 h

The structures appear in SMILES notation.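 Dose response: 5 concentrations. Exposure: 48 h. Format: 96-well plates. Endpoint: linear interpolation; highest concentration if not reached. At the GI50, growth is halved. Definition used: TGI = concentration required for complete inhibition of growth.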

Consider `Cc1cc2ccccc2n1CC(=O)N1CCCC1`, for which the total growth inhibition concentration (TGI) in the test with RXF 393 renal, in the test on UO-31 renal, in the test with T-47D breast, in the test with SNB-75 CNS, in the test on SK-OV-3 ovarian and in the test with MDA-MB-231 breast was greater than 100 µM throughout. Besides, the TGI in the test with SF-539 CNS, with EKVX NSCLC and in the test with MDA-MB-435 was greater than 100 µM throughout.

Regarding `Cc1ccc(C)c(COCCOCn2cc(Br)c(N)nc2=O)c1`, the TGI with RXF 393 renal, with UO-31 renal, with T-47D breast, in the test with SNB-75 CNS, in the test with SK-OV-3 ovarian and with MDA-MB-231 breast was greater than 100 µM each time. Further, the TGI in the test on SF-539 CNS, in the test on EKVX NSCLC and in the test on MDA-MB-435 was greater than 100 µM throughout.

For `CCOC(=O)c1c2c(n(-c3ccc(OC)cc3)c1C)C(=O)C(=O)c1ccccc1-2`, the TGI in the test on RXF 393 renal came out at 4.05 µM; in the test on T-47D breast, 4.44 µM; in the test on SNB-75 CNS, 4.09 µM; with SK-OV-3 ovarian, 6.03 µM; in the test on MDA-MB-231 breast, 4.37 µM; in the test on SF-539 CNS it was 1.76 µM. Besides, the TGI with EKVX NSCLC amounted to 4.09 µM; in the test with MDA-MB-435, 0.351 µM.

For `CN1C/C(=C\c2ccc(Cl)cc2)C(=O)/C(=C/c2ccc(Cl)cc2)C1`, the TGI in the test with RXF 393 renal was 1.22 µM; in the test with T-47D breast it was greater than 100 µM; with SNB-75 CNS, greater than 100 µM; in the test on MDA-MB-231 breast it was 8.08 µM; with SF-539 CNS, 1.8 µM; with EKVX NSCLC, greater than 90.6 µM. In the test on MDA-MB-435, this compound yielded a TGI greater than 100 µM.

As for `Fc1ccc(C2CC(c3cccc(Nc4ccncc4)c3)=NN2c2cc(Cl)cc(Cl)c2)cc1` (stereo unspecified), the GI50 with RXF 393 renal was 1.59 µM; with UO-31 renal it was 1.36 µM; with SNB-75 CNS it was 1.31 µM; in the test with SK-OV-3 ovarian, 1.79 µM; in the test with SF-539 CNS, 1.64 µM; in the test on EKVX NSCLC, 1.71 µM. Moreover, the GI50 in the test on MDA-MB-435 was 1.68 µM. Moreover, the TGI with RXF 393 renal worked out at 2.99 µM; in the test with UO-31 renal, 2.66 µM; with SNB-75 CNS it was 2.91 µM; in the test on SK-OV-3 ovarian, 3.54 µM; in the test with SF-539 CNS, 3.11 µM; with EKVX NSCLC, 3.38 µM. Also, the TGI with MDA-MB-435 came to 3.13 µM.

Regarding `Cc1cn(CC2=NCCCN2)c(=O)[nH]c1=O`, the TGI with RXF 393 renal, in the test with UO-31 renal, with T-47D breast, with SNB-75 CNS, in the test with SK-OV-3 ovarian and in the test on MDA-MB-231 breast was greater than 100 µM in each case. Moreover, the TGI in the test on EKVX NSCLC is greater than 100 µM.

`Cn1c(-c2ccc[se]2)ccc1-c1ccc(CO)[se]1`: the TGI in the test on RXF 393 renal was 6.26 µM; in the test on UO-31 renal it was greater than 100 µM; in the test on SNB-75 CNS, greater than 79.9 µM; in the test with SK-OV-3 ovarian, 42.5 µM; with MDA-MB-231 breast, greater than 88.2 µM; in the test with SF-539 CNS it was greater than 100 µM. Further, the TGI in the test on EKVX NSCLC is greater than 100 µM; in the test on MDA-MB-435, greater than 67.7 µM.

For `COc1ccc(Oc2nc3ccc(C(F)(F)F)cc3nc2-c2ccccc2)cc1`, the TGI in the test on RXF 393 renal, in the test with UO-31 renal, in the test on SK-OV-3 ovarian, in the test with MDA-MB-231 breast, in the test with EKVX NSCLC and in the test on MDA-MB-435 was greater than 100 µM throughout.

For `O=C(NNc1cn[nH]c(=O)c1Cl)/C(=C/c1ccc2c(c1)OCO2)NC(=O)c1ccccc1`, the TGI in the test with UO-31 renal is greater than 100 µM; in the test with T-47D breast it was greater than 100 µM; in the test on SNB-75 CNS, 86.2 µM; in the test on SK-OV-3 ovarian it was greater than 100 µM; in the test with MDA-MB-231 breast, greater than 100 µM; in the test on SF-539 CNS it was greater than 100 µM. Further, the TGI in the test with EKVX NSCLC and in the test with MDA-MB-435 was greater than 100 µM each time.

For the compound `CC(=Nc1c2ccccc2nc2ccccc12)N(C)C`, the TGI with RXF 393 renal was 78.1 µM; in the test with UO-31 renal, 54.6 µM; in the test on T-47D breast, 54.5 µM; with SNB-75 CNS, 71 µM; in the test on SK-OV-3 ovarian, greater than 100 µM; with MDA-MB-231 breast, 30.4 µM. Besides, the TGI in the test on EKVX NSCLC and in the test with MDA-MB-435 was greater than 100 µM throughout.

For the compound `CCN(CC)C(=S)N/N=C/c1ccccn1`, the concentration for total growth inhibition (TGI) in the test on UO-31 renal is 2.1 µM; in the test with T-47D breast it was greater than 100 µM; in the test with SNB-75 CNS it was 44.8 µM; with MDA-MB-231 breast, greater than 100 µM; in the test on SF-539 CNS, 0.377 µM; with EKVX NSCLC it was greater than 100 µM. Also, the TGI in the test on MDA-MB-435 was greater than 100 µM.

On to `O=c1[nH]c(=O)n(COCc2ccccc2)c2ccc([N+](=O)[O-])cc12`, for which the total growth inhibition concentration (TGI) with RXF 393 renal, in the test on UO-31 renal, with SNB-75 CNS, in the test on SK-OV-3 ovarian, in the test on MDA-MB-231 breast and in the test on SF-539 CNS was greater than 100 µM throughout. In addition, the TGI in the test on EKVX NSCLC and with MDA-MB-435 was greater than 100 µM in each case.

Regarding `CC(C)(C)OC(=O)NC(Cc1ccc(O)cn1)C(N)=O` (stereo unspecified), the TGI with RXF 393 renal, in the test on UO-31 renal, with SNB-75 CNS, with MDA-MB-231 breast, with SF-539 CNS and in the test on EKVX NSCLC was greater than 100 µM in each case. Further, the TGI with MDA-MB-435 is greater than 100 µM.

For the compound `CC(=O)NC1C(OCc2ccccc2)OC(CO)C(O)C1OCC(=O)NC(C)C(=O)NC(CCC(=O)NCCCCCNc1c2ccccc2nc2cccc([N+](=O)[O-])c12)C(N)=O` (stereo unspecified), the total growth inhibition concentration (TGI) in the test on SNB-75 CNS was 0.00164 µM; in the test with MDA-MB-231 breast, less than 0.0001 µM; with SF-539 CNS it was 0.00116 µM; with MDA-MB-435 it was less than 0.0001 µM.

As for `OCC(O)C1OC2CC1Nc1ccccc1N2` (stereo unspecified), the TGI with UO-31 renal, in the test with T-47D breast, with SNB-75 CNS, with SK-OV-3 ovarian, with MDA-MB-231 breast and in the test on SF-539 CNS was greater than 100 µM in each case. In addition, the TGI in the test with EKVX NSCLC and in the test with MDA-MB-435 was greater than 100 µM each time.

Regarding `CCCC(CC)c1c(O)c(O)c(C(CC)CCC)c(C(CC)CCC)c1C(CC)CCC` (stereo unspecified), the TGI in the test on RXF 393 renal, with UO-31 renal, with T-47D breast, in the test on SK-OV-3 ovarian, with MDA-MB-231 breast and in the test on SF-539 CNS was greater than 10 µM throughout. For the same compound, the TGI with EKVX NSCLC and in the test on MDA-MB-435 was greater than 10 µM throughout.
